# Reference: patent publication US20240050563A1, “Combination Treatment of Cancer” (Ares Trading S.A., priority 2020, published 2024)
# Test system: MC38 colon carcinoma cells
# Test: Syngeneic MC38 tumor model (tumor volume monitoring)
# Type: in vivo, C57/BL6 mice
# Settings: MCT4 inhibitor 30 mg/kg p.o. qd, bintrafusp alfa 492 μg/animal i.v. day 0, 3, 6; for % T/C: Day 20, versus Group 1 control (vehicle + mutant non-binding anti-PD-L1 antibody); for reduction of tumor growth: MC38 tumor-bearing C57/BL6 mice, study end day 20
# Description: MC38 colon carcinoma cells were obtained from Scripps Research Institute. Cells were tested and verified to be free of adventitious viruses and mycoplasma.
# MC38 cells were cultured in DMEM containing 4.5 g/L D-glucose, 2 mM glutamine, and 110 mg/L sodium pyruvate and supplemented with 10% FBS. All cells were maintained at 37° C. and 5% CO2 in aseptic conditions. Cells were passaged upon reaching 50-85% confluence for a total of 2 to 15 passages prior to in vivo implantation. Cells were harvested by trypsinization with TrypLE Express and viable cell counts were determined using a Countess or […] cell counter and trypan blue exclusion staining.
# Female C57/BL6 mice were obtained from Charles River Laboratories. They were inoculated (s.c. in the right dorsal flank) with 1×10^6 MC38 cells in 0.1 mL sterile PBS. Treatment was initiated when tumors reached an average volume of approximately 50-80 mm^3 (Day 0).
# Test groups of the MC38 tumor-bearing mice (8 animals in each group) were treated with both vehicle (20% Kleptose (HPB) in 50 mM Phosphate pH 7.4 buffer) and a mutant, non-binding anti-PD-L1 antibody (Group 1, control), the MCT4 inhibitor described as Compound 367 in WO 2020/127960 (5-{2-[5-chloro-2-(5-ethoxyquinoline-8-sulfonamido)phenyl]ethynyl}-4-methoxypyridine-2-carboxylic acid; commercially available from, e.g., Selleck Chemicals) (Group 2), bintrafusp alfa (Group 3), or a combination of Compound 367 and bintrafusp alfa (Group 4). In Group 1 (Control Group) the vehicle was administered at 10 ml/kg animal weight, p.o. once daily and Mut PD-L1 i.v. at day 0, 3, and 6 (400 μg/animal). In Groups 2 and 4 the MCT4 inhibitor was administered at 30 mg/kg animal weight (p.o. administration, once per day (qd)). In Groups 3 and 4 bintrafusp alfa was administered 492 μg/animal at day 0, 3, and 6 (i.v. administration). At day 20 the study was terminated. Efficacy of the treatment was evaluated by monitoring tumor volume over the course of the study.
Compound,% T/C [%],reduction of tumor growth [%]
"CCOc1ccc(S(=O)(=O)Nc2ccc(Cl)cc2C#Cc2cnc(C(=O)O)cc2OC)c2ncccc12 [MCT4 inhibitor, 5-{2-[5-chloro-2-(5-ethoxyquinoline-8-sulfonamido)phenyl]ethynyl}-4-methoxypyridine-2-carboxylic acid]",79.1,20
"bintrafusp alfa: anti-PD-L1:TGFβRII fusion protein, CAS 1918149-01-5; light chain SEQ ID NO: 7, heavy chain SEQ ID NO: 8",79.7,20
